In patent US9145399B2, “Substituted bicyclic triazole derivatives as gamma secretase modulators” (Janssen Pharmaceuticals, Inc., priority 2010, dated 2015) one finds IC50 and melting point data, which are given here for 21 compounds.

The subject of one data set is Aβ42. Kind of data set: Screening for γ-secretase-modulating activity in SKNBE2 cells carrying APP 695 wild type: Aβ42 in cell supernatant (Alphalisa). Format: cell-based. As to conditions: Homo sapiens, SKNBE2, SKNBE2 cells carrying APP 695 wild type, overnight incubation. The protocol: (§1) Pharmacology A) Screening of the Compounds of the Invention for γ-Secretase-Modulating Activity
(§2) Screening was carried out using SKNBE2 cells carrying the APP 695—wild type, grown in Dulbecco's Modified Eagle's Medium/Nutrient mixture F-12 (DMEM/NUT-mix F-12) (HAM) provided by Invitrogen (cat no. 10371-029) containing 5% Serum/Fe supplemented with 1% non-essential amino acids, 1-glutamine 2 mM, Hepes 15 mM, penicillin 50 U/ml (units/ml) en streptomycin 50 μg/ml. Cells were grown to near confluency.
(§3) The screening was performed using a modification of the assay as described in Citron et al (1997) Nature Medicine 3: 67. Briefly, cells were plated in a 384-well plate at 10^4 cells/well in Ultraculture (Lonza, BE12-725F) supplemented with 1% glutamine (Invitrogen, 25030-024), 1% non-essential amino acid (NEAA), penicillin 50 U/ml en streptomycin 50 μg/ml in the presence of test compound at different test concentrations. The cell/compound mixture was incubated overnight at 37° C., 5% CO2. The next day the media were assayed by two sandwich immuno-assays, for Aβ42 and Aβtotal.
(§4) Aβtotal and Aβ42 concentrations were quantified in the cell supernatant using the Aphalisa technology (Perkin Elmer). Alphalisa is a sandwich assay using biotinylated antibody attached to streptavidin coated donorbeads and antibody conjugated to acceptor beads. In the presence of antigen, the beads come into close proximity. The excitation of the donor beads provokes the release of singlet oxygen molecules that trigger a cascade of energy transfer in the acceptor beads, resulting in light emission. To quantify the amount of Aβ42 in the cell supernatant, monoclonal antibody specific to the C-terminus of Aβ42 (JRF/cAβ42/26) was coupled to the receptor beads and biotinylated antibody specific to the N-terminus of Aβ (JRF/AβN/25) was used to react with the donor beads. T quantify the amount of Aβtotal in the cell supernatant, monoclonal antibody specific to the N-terminus of Aβ (JRF/AβN/25) was coupled to the receptor beads and biotinylated antibody specific to the mid region of Aβ (biotinylated 4G8) was used to react with the donor beads.
(§5) To obtain the values reported in Table 3, the data are calculated as percentage of the maximum amount of amyloid Beta 42 measured in the absence of the test compound. The sigmoidal dose response curves were analyzed using non-linear regression analysis with percentage of the control plotted against the log concentration of the compound. A 4-parameter equation was used to determine the IC50.

The subject of the next data set is Aβtotal. The data set can be described thus: Screening for γ-secretase-modulating activity in SKNBE2 cells carrying APP 695 wild type: Aβtotal in cell supernatant (Alphalisa). The data set is classed as cell-based. As to conditions: Homo sapiens, overnight incubation. The protocol:
as §1, §2, §3, §4, §5

In turn, `COc1cc(Nc2nc3c(-c4cccc(C(F)(F)F)c4)nccn3n2)ccc1-n1cnc(C)c1` [Compound 22, N-[3-methoxy-4-(4-methyl-1H-imidazol-1-yl)phenyl]-8-[3-(trifluoromethyl)phenyl]-[1,2,4]triazolo[1,5-a]pyrazin-2-amine] yielded a melting point of 199 °C. The half-inhibitory concentration (IC50) in the data set with Aβ42 is 40 nM. Besides, the IC50 with Aβtotal came to 7590 nM.

On to `COc1cc(Nc2nc3c(-c4ccccc4C(F)(F)F)cccn3n2)ccc1-c1ocnc1C` [Compound 23, N-[3-methoxy-4-(4-methyl-5-oxazolyl)phenyl]-8-[2-(trifluoromethyl)phenyl]-[1,2,4]triazolo[1,5-a]pyridin-2-amine], for which the melting point came out at 220.3 °C. Moreover, in the data set with Aβ42, the IC50 was found to be 13 nM. The IC50 in the data set on Aβtotal is greater than 10000 nM.

Turning to `Cc1cc(-c2ccc(Nc3nc4c(-c5ccccc5Cl)cccn4n3)cc2F)ccn1` [Compound 25, 8-(2-chlorophenyl)-N-[3-fluoro-4-(2-methyl-4-pyridinyl)phenyl]-[1,2,4]triazolo[1,5-a]pyridin-2-amine], the melting point stood at 251 °C. The compound also displayed an IC50 with Aβ42 of 15 nM. In addition, the IC50 with Aβtotal was greater than 10000 nM.

For `Cc1cc(-c2ccc(Nc3nc4c(-c5ccccc5Cl)cccn4n3)cc2)cc(C)n1` [Compound 26, 8-(2-chlorophenyl)-N-[4-(2,6-dimethyl-4-pyridinyl)phenyl]-[1,2,4]triazolo[1,5-a]pyridin-2-amine], the melting point turned out to be 228.1 °C. The compound also showed an IC50 in the data set on Aβ42 of 43 nM. In addition, the half-inhibitory concentration (IC50) in the data set with Aβtotal is greater than 10000 nM.

In the case of `COc1cc(Nc2nc3n(n2)CCCC3c2cccc(F)c2)ccc1-n1cnc(C)c1` (stereo not drawn) [Compound 30, 8-(3-fluorophenyl)-5,6,7,8-tetrahydro-N-[3-methoxy-4-(4-methyl-1H-imidazol-1-yl)phenyl]-[1,2,4]triazolo[1,5-a]pyridin-2-amine], the melting point worked out at 200.6 °C. Also, the IC50 in the data set with Aβ42 was 49 nM. Moreover, the IC50 in the data set with Aβtotal was greater than 10000 nM.

`COc1cc(Nc2nc3n(n2)CCCC3c2ccc(F)cc2C)ccc1-n1cnc(C)c1` (stereo not drawn) [Compound 32, 8-(4-fluoro-2-methylphenyl)-5,6,7,8-tetrahydro-N-[3-methoxy-4-(4-methyl-1H-imidazol-1-yl)phenyl]-[1,2,4]triazolo[1,5-a]pyridin-2-amine] came in with a melting point of 249 °C. The compound further came in with an IC50 with Aβ42 of 12 nM. The compound also yielded a half-maximal inhibitory concentration (IC50) in the data set with Aβtotal of 9330 nM.

In turn, `COc1cc(Nc2nc3n(n2)CCCC3c2cccc(C(F)(F)F)c2)ccc1-n1cnc(C)c1` (stereo not drawn) [Compound 34, 5,6,7,8-tetrahydro-N-[3-methoxy-4-(4-methyl-1H-imidazol-1-yl)phenyl]-8-[3-(trifluoromethyl)phenyl]-[1,2,4]triazolo[1,5-a]pyridin-2-amine] came in with a melting point of 224.9 °C. The compound further came in with an IC50 in the data set on Aβ42 of 10 nM. Further, the IC50 in the data set on Aβtotal was determined as 7590 nM.

Compound `COc1cc(Nc2nc3n(n2)CCCC3c2ccccc2C(F)(F)F)ccc1-c1ocnc1C` (stereo not drawn) [Compound 38, 5,6,7,8-tetrahydro-N-[3-methoxy-4-(4-methyl-5-oxazolyl)phenyl]-8-[2-(trifluoromethyl)phenyl]-[1,2,4]triazolo[1,5-a]pyridin-2-amine] yielded a melting point of 258.5 °C. Besides, the IC50 in the data set on Aβ42 amounted to 29 nM. Further, in the data set on Aβtotal, the 50% inhibitory concentration (IC50) is greater than 10000 nM.

In the case of `COc1cc(Nc2nc3n(n2)CCCC3c2cccc(F)c2)ccc1-c1ccnc(C)c1` (stereo not drawn) [Compound 44, 8-(3-fluorophenyl)-5,6,7,8-tetrahydro-N-[3-methoxy-4-(2-methyl-4-pyridinyl)phenyl]-[1,2,4]triazolo[1,5-a]pyridin-2-amine], the melting point worked out at 170.1 °C. The compound further returned an IC50 in the data set on Aβ42 of 39 nM. In the data set with Aβtotal, this compound had an IC50 greater than 10000 nM.

`COc1cc(Nc2nc3n(n2)CCOC3c2ccccc2C(F)(F)F)ccc1-n1cnc(C)c1` (stereo not drawn) [Compound 47, 5,6-dihydro-N-[3-methoxy-4-(4-methyl-1H-imidazol-1-yl)phenyl]-8-[2-(trifluoromethyl)phenyl]-8H-[1,2,4]triazolo[5,1-c][1,4]oxazin-2-amine] had a melting point of 202.9 °C. Moreover, in the data set with Aβ42, the midpoint of inhibition, the IC50, lay at 55 nM. This compound also came in with an IC50 with Aβtotal greater than 10000 nM.

`COc1cc(Nc2nc3n(n2)CCCC3c2cc(C(F)(F)F)ccc2F)ccc1-n1cnc(C)c1` (stereo not drawn) [Compound 48, 8-[2-fluoro-5-(trifluoromethyl)phenyl]-5,6,7,8-tetrahydro-N-[3-methoxy-4-(4-methyl-1H-imidazol-1-yl)phenyl]-[1,2,4]triazolo[1,5-a]pyridin-2-amine]: the melting point came to 204.4 °C. This compound also showed a half-inhibitory concentration (IC50) in the data set on Aβ42 of 30 nM. The compound further yielded an IC50 in the data set with Aβtotal of 5750 nM.

Take `COc1cc(Nc2nc3n(n2)CCCC3c2ccccc2F)ccc1-n1cnc(C)c1` (stereo not drawn) [Compound 49, 8-(2-fluorophenyl)-5,6,7,8-tetrahydro-N-[3-methoxy-4-(4-methyl-1H-imidazol-1-yl)phenyl]-[1,2,4]triazolo[1,5-a]pyridin-2-amine]: the melting point worked out at 188.3 °C. For the same compound, half-maximal inhibition with Aβ42 (IC50) required 29 nM. For the same compound, the IC50 in the data set on Aβtotal was greater than 10000 nM.

Consider `COc1cc(Nc2nc3n(n2)CCCC3c2ccc(C(F)(F)F)cc2)ccc1-n1cnc(C)c1` (stereo not drawn) [Compound 50, 5,6,7,8-tetrahydro-N-[3-methoxy-4-(4-methyl-1H-imidazol-1-yl)phenyl]-8-[4-(trifluoromethyl)phenyl][1,2,4]triazolo[1,5-a]pyridin-2-amine], for which the melting point worked out at 229.7 °C. Further, the IC50 with Aβ42 worked out at 19 nM. It took 8130 nM to reach half-maximal inhibition with Aβtotal (IC50).

Compound `FC(F)(F)c1ccccc1C1CCCn2nc(Nc3ccc(-c4ccncc4)cc3)nc21` (stereo not drawn) [Compound 75, 5,6,7,8-tetrahydro-N-[4-(4-pyridinyl)phenyl]-8-[2-(trifluoromethyl)phenyl]-[1,2,4]triazolo[1,5-a]pyridin-2-amine] showed a melting point of 240.4 °C. Also, in the data set with Aβ42, the midpoint of inhibition, the IC50, lay at 257 nM. The compound also registered an IC50 with Aβtotal greater than 10000 nM.

As to `Cc1cc(-c2ccc(Nc3nc4n(n3)CCOC4c3ccccc3Cl)cc2)ccn1` (stereo not drawn) [Compound 76, 8-(2-chlorophenyl)-5,6-dihydro-N-[4-(2-methyl-4-pyridinyl)phenyl]-8H-[1,2,4]triazolo[5,1-c][1,4]oxazin-2-amine], the melting point is 216.1 °C. The IC50 in the data set on Aβ42 amounted to 46 nM. In the data set on Aβtotal, the IC50 is greater than 10000 nM.

`COc1cc(Nc2nc3n(n2)CCCC3c2ccccc2Cl)ccc1-c1ccnc(C)c1` (stereo not drawn) [Compound 77] gave a melting point of 167.9 °C. The IC50 in the data set with Aβ42 worked out at 40 nM. This compound also had an IC50 with Aβtotal greater than 10000 nM.

Turning to `COc1cc(Nc2nc3n(n2)CCOC3c2ccc(F)cc2C)ccc1-c1ccnc(C)c1` (stereo not drawn) [Compound 92, 8-(4-fluoro-2-methylphenyl)-5,6-dihydro-N-[3-methoxy-4-(2-methyl-4-pyridinyl)phenyl]-8H-[1,2,4]triazolo[5,1-c][1,4]oxazin-2-amine], the melting point was 201.9 °C. Also, in the data set with Aβ42, the midpoint of inhibition, the IC50, lay at 21 nM. Besides, the IC50 in the data set on Aβtotal was greater than 10000 nM.

In turn, `COc1cc(Nc2nc3n(n2)CCCC3c2ccccc2F)ccc1-c1ccnc(C)c1` (stereo not drawn) [Compound 99, 8-(2-fluorophenyl)-5,6,7,8-tetrahydro-N-[3-methoxy-4-(2-methyl-4-pyridinyl)phenyl]-[1,2,4]triazolo[1,5-a]pyridin-2-amine] returned a melting point of 214.9 °C. The compound also gave a half-maximal inhibitory concentration (IC50) in the data set on Aβ42 of 50 nM. The compound further had a 50% inhibitory concentration (IC50) in the data set on Aβtotal greater than 10000 nM.

`COc1cc(Nc2nc3n(n2)CCOC3c2ccc(F)cc2F)ccc1-c1ccnc(C)c1` (stereo not drawn) [Compound 100, 8-(2,4-difluorophenyl)-5,6-dihydro-N-[3-methoxy-4-(2-methyl-4-pyridinyl)phenyl]-8H-[1,2,4]triazolo[5,1-c][1,4]oxazin-2-amine] registered a melting point of 217.2 °C. Moreover, in the data set with Aβ42, half-maximal inhibition (IC50) was put at 36 nM. The IC50 in the data set with Aβtotal was greater than 10000 nM.

As to `COc1cccc(C2CCCn3nc(Nc4ccc(-c5ccnc(C)c5)c(F)c4)nc32)c1` (stereo not drawn) [Compound 102, N-[3-fluoro-4-(2-methyl-4-pyridinyl)phenyl]-5,6,7,8-tetrahydro-8-(3-methoxyphenyl)-[1,2,4]triazolo[1,5-a]pyridin-2-amine], the melting point worked out at 148.4 °C. This compound also yielded a 50% inhibitory concentration (IC50) with Aβ42 of 29 nM. In addition, the IC50 with Aβtotal was greater than 10000 nM.

Take `COc1cccc(C2CCCn3nc(Nc4ccc(-c5ccnc(C)c5)cc4)nc32)c1` (stereo not drawn) [Compound 103, 5,6,7,8-tetrahydro-8-(3-methoxyphenyl)-N-[4-(2-methyl-4-pyridinyl)phenyl]-[1,2,4]triazolo[1,5-a]pyridin-2-amine]: the melting point was 221.6 °C. This compound came in with an IC50 in the data set on Aβ42 of 59 nM. This compound showed an IC50 with Aβtotal greater than 10000 nM.
